Laboratory results reported in patent US20150253306A1 (priority 2012, published 2015).

Test system: intact platelets
Assay: mitochondrial respiration of intact platelets (titration protocol)
Type: cell-based, human
Experimental: Data was recorded with DatLab software 4.3.
Integrated respiration of intact cells with endogenous mitochondrial substrates was evaluated with two different titration protocols. Platelets were suspended in either PBS-glucose or the control subject's own plasma. […] To evaluate the contribution of respiration independent of ADP phosphorylation, oligomycin (1 μg/ml, ATP-synthase inhibitor) was sequentially added inducing LEAK respiration state (also known as oligomycin-induced state 4 respiration). […] Rotenone (2 μM, complex I [CI] inhibitor) and antimycin-A (1 μg/ml, complex III [CIII] inhibitor) were then sequentially added to inhibit the ETS providing the residual oxygen consumption which was subtracted from the different respiratory parameters in further analyses.
In order to evaluate the influence on maximal respiratory capacity by the inhibition of ATP-synthase, a second experimental protocol was performed, where ETS capacity was evaluated by direct titration of FCCP after stabilization of routine respiration, followed by the same inhibitors as above. Control ratios were derived from maximal, FCCP-stimulated, respiration divided by LEAK respiration (ETS/LEAK) and routine respiration (ETS/routine).

For antimycin-A, the “further inhibition of respiration after rotenone” value (intact platelets, antimycin-A 1 μg/ml added after rotenone 2 μM) was “no further inhibition”.
For `C=C(C)[C@H]1Cc2c(ccc3c2O[C@@H]2COc4cc(OC)c(OC)cc4[C@@H]2C3=O)O1` [rotenone], the inhibition at 2 µM (Homo sapiens, Platelet, read-out: inhibition of respiration) was ~99%.
